For twelve compounds, IC50 results are on record in ChEMBL document CHEMBL1140390, “ERbeta ligands. Part 4: Synthesis and structure-activity relationships of a series of 2-phenylquinoline derivatives” (Bioorg Med Chem Lett, 2005).

Some results are limits rather than exact numbers.

The target in one experiment is T1, Estrogen receptor (Homo sapiens, UniProt P03372).
T1 sequence (P03372 whole entry): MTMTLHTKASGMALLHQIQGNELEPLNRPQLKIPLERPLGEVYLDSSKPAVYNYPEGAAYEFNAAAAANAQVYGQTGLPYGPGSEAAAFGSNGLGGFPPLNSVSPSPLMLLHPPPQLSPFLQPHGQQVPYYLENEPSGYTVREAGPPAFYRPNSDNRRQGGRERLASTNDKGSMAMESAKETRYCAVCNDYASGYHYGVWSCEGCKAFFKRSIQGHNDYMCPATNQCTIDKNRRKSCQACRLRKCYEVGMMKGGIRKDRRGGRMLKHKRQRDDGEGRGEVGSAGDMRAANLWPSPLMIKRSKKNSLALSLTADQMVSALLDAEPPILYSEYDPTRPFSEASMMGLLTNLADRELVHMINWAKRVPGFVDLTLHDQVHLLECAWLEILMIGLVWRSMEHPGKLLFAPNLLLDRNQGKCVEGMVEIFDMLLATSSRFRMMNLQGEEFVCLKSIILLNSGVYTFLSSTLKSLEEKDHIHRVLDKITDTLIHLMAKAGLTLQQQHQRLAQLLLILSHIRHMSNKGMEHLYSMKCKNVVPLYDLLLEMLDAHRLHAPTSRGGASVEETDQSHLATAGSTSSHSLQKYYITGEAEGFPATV

A further experiment has as its target Estrogen receptor beta (Homo sapiens, UniProt Q92731).

Estrogen receptor beta, sequence (Q92731 whole entry): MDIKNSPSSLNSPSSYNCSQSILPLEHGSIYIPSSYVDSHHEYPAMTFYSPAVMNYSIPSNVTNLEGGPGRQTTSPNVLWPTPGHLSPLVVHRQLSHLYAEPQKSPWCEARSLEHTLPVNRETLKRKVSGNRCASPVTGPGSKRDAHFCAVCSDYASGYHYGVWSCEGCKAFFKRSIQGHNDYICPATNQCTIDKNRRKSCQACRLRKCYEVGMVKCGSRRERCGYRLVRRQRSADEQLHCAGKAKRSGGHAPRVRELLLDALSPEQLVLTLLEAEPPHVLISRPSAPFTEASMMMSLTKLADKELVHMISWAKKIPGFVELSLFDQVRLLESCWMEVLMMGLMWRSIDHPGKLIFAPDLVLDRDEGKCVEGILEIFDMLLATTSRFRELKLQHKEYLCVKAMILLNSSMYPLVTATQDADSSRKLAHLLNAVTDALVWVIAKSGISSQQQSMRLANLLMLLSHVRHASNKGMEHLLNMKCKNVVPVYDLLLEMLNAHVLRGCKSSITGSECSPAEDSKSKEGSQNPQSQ
Description for Estrogen receptor beta: Binding affinity for human Estrogen receptor beta

The term IC50 denotes the point on the concentration scale where inhibition reaches its midpoint. In the case of `Oc1ccc(-c2ccc3c(Cl)c(O)ccc3n2)cc1`, the values for the IC50 against Estrogen receptor and at Estrogen receptor beta were 632 nM and 30 nM, respectively.
Take `CC(O)c1cc(-c2ccc(O)c(F)c2)nc2ccc(O)cc12` (stereo not drawn): the IC50 against Estrogen receptor and against Estrogen receptor beta was greater than 5000 nM in each case.
For the compound `C#Cc1cc(-c2ccc(O)c(F)c2)nc2ccc(O)cc12`, the IC50 turned out to be 1310 nM on Estrogen receptor and 27 nM against Estrogen receptor beta.
In the same order, the values of `CCc1cc(-c2ccc(O)cc2)nc2ccc(O)cc12` are 634 nM and 52 nM.
As for `Oc1ccc2nc(-c3ccc(O)c(F)c3)cc(-c3ccccc3)c2c1`, the half-maximal inhibitory concentration (IC50) was 1810 nM at Estrogen receptor and 211 nM on Estrogen receptor beta.
On the same counts, the results for `CC(=O)c1cc(-c2ccc(O)cc2)nc2ccc(O)cc12` are 3140 nM and 221 nM.
On the same counts, the results for `C=Cc1cc(-c2ccc(O)c(F)c2)nc2ccc(O)cc12` are 385 nM and 44 nM.
On the same counts, the results for `CCc1cc(-c2ccc(O)c(F)c2)nc2ccc(O)cc12` are 1750 nM and 79 nM.
`C#Cc1cc(-c2ccc(O)cc2)nc2ccc(O)cc12` came in with an IC50 against Estrogen receptor beta of 75 nM.
For the compound `Oc1ccc(-c2ccc3cc(O)ccc3n2)cc1`, the IC50 against Estrogen receptor is 1780 nM; against Estrogen receptor beta, 171 nM.
On the same counts, the results for `Oc1ccc(-c2ccc3c(Br)c(O)ccc3n2)cc1` are 1140 nM and 88 nM.
On the same counts, the results for `Oc1ccc2nc(-c3cc(F)c(O)c(F)c3)cc(Br)c2c1` are 783 nM and 36 nM.
